Measured values taken from patent US20250144067A1, “PERSONALIZED STARVATION THERAPY FOR CANCER” (Faeth Therapeutics, Inc., priority 2021, published 2025).
Structures can show the parent of a compound that is named as a salt. Peptide text beside a SMILES is read from it.

How the values were obtained:
[1] = system: NCI-H292 lung cancer cells; assay: FDA drug screening, complete media vs cholesterol-free media with simvastatin (TABLE 2); type: cell-based, human; conditions: for Cholesterol-free media + simvastatin (0.04 μM) / Complete Media: NCI-H292 cells
[2] = system: NCI-H292 lung cancer cells; assay: FDA drug screening, complete media vs cholesterol-free media without statin (TABLE 1); type: cell-based, human
[3] = drug in cholesterol-free media with simvastatin 0.04 μM
[4] = complete media vs cholesterol-free media + simvastatin (0.04 μM), >0 enhanced anti-cancer activity, about 0 neutral, <0 antagonist
[5] = Complete minus Cholesterol-free, >0 enhanced anti-cancer activity, about 0 neutral, <0 antagonist
[6] = NCI-H292 cells, cholesterol-free media without statin
[7] = FDA library drug in cholesterol-free media with simvastatin 0.04 μM
[8] = FDA library drug in complete media
[9] = Complete minus Cholesterol-free, greater than 0 enhanced anti-cancer activity, about 0 neutral, below 0 antagonists
[10] = NCI-H292 cells in cholesterol-free media without statin
[11] = NCI-H292 cells in complete media
[12] = NCI-H292 cells, cholesterol-free media without statin, FDA drug library screen
[13] = NCI-H292 cells, complete media, FDA drug library screen
[14] = complete vs cholesterol-free media, >0 enhanced anti-cancer activity, about 0 neutral, <0 antagonist
[15] = FDA drug library screen, cholesterol-free media with simvastatin 0.04 μM
[16] = FDA drug library screen, complete media
[17] = complete media minus cholesterol-free media + simvastatin, >0 enhanced anti-cancer activity, about 0 neutral, <0 antagonist
[18] = Complete minus Cholesterol-free, greater than 0 enhanced anti-cancer activity, about 0 neutral, below 0 antagonist
[19] = NCI-H292 cells, FDA drug library screen, cholesterol-free media without statin
[20] = NCI-H292 cells, FDA drug library screen, complete media
[21] = complete vs cholesterol-free media, greater than 0 enhanced anti-cancer activity, about 0 neutral, below 0 antagonists
[22] = complete media minus cholesterol-free media + simvastatin, […]
[23] = cholesterol-free media with simvastatin 0.04 μM, cell growth value in FDA drug screen
[24] = complete media, cell growth value in FDA drug screen

## Cn1cnc([N+](=O)[O-])c1Sc1ncnc2nc[nH]c12 [Azathioprine]
[1]; [3]
  Cholesterol-free media + simvastatin (0.04 μM): 1.672
[1]; drug in complete media
  Complete Media: 1.494
[1]; [4]
  Difference: −0.18
[2]; [5]
  Difference: −0.20
[2]; [6]
  Cholesterol-free: 0.5865
[2]; NCI-H292 cells, complete media
  Complete: 0.3893

## O=C(O)CCCCCCCC(=O)O [Azelaic acid]
[1]; [7]
  Cholesterol-free media + simvastatin (0.04 μM): 1.245
[1]; [8]
  Complete Media: 0.8813
[1]; [4]
  Difference: −0.36
[2]; [9]
  Difference: −0.60
[2]; [10]
  Cholesterol-free: 1.702
[2]; [11]
  Complete: 1.104

## CN1CCCC(n2nc(Cc3ccc(Cl)cc3)c3ccccc3c2=O)CC1 (stereo not drawn) [Azelastine (hydrochloride)]
[1]; [3]
  Cholesterol-free media + simvastatin (0.04 μM): 1.092
[1]; drug in complete media
  Complete Media: 0.8741
[1]; [4]
  Difference: −0.22
[2]; [12]
  Cholesterol-free: 0.9594
[2]; [13]
  Complete: 1.039
[2]; [14]
  Difference: 0.08

## CC1=C(C(=O)OC(C)C)C(c2cccc([N+](=O)[O-])c2)C(C(=O)OC2CN(C(c3ccccc3)c3ccccc3)C2)=C(N)N1 (stereo not drawn) [Azelnidipine]
[1]; [15]
  Cholesterol-free media + simvastatin (0.04 μM): 0.7982
[1]; [16]
  Complete Media: 1.013
[1]; [17]
  Difference: 0.21
[2]; [18]
  Difference: −0.15
[2]; [19]
  Cholesterol-free: 0.7076
[2]; [20]
  Complete: 0.5567

## CCOc1nc2cccc(C(=O)OCc3oc(=O)oc3C)c2n1Cc1ccc(-c2ccccc2-c2noc(=O)[nH]2)cc1 [Azilsartan medoxomil]
[1]; [15]
  Cholesterol-free media + simvastatin (0.04 μM): 1.394
[1]; [16]
  Complete Media: 1.269
[1]; [4]
  Difference: −0.12
[2]; [9]
  Difference: −0.49
[2]; [10]
  Cholesterol-free: 1.119
[2]; [11]
  Complete: 0.6328

## CCOc1nc2cccc(C(=O)O)c2n1Cc1ccc(-c2ccccc2-c2nc(=O)o[nH]2)cc1 [Azilsartan]
[1]; [15]
  Cholesterol-free media + simvastatin (0.04 μM): 1.196
[1]; [16]
  Complete Media: 1.042
[1]; [4]
  Difference: −0.15
[2]; [6]
  Cholesterol-free: 1.417
[2]; NCI-H292 cells, complete media
  Complete: 1.021
[2]; [21]
  Difference: −0.40

## CC[C@H]1OC(=O)[C@H](C)[C@@H](O[C@H]2C[C@@](C)(OC)[C@@H](O)[C@H](C)O2)[C@H](C)[C@@H](O[C@@H]2O[C@H](C)C[C@H](N(C)C)[C@H]2O)[C@](C)(O)C[C@@H](C)CN(C)[C@H](C)[C@@H](O)[C@]1(C)O [Azithromycin]
[1]; [3]
  Cholesterol-free media + simvastatin (0.04 μM): 1.336
[1]; drug in complete media
  Complete Media: 1.162
[1]; [4]
  Difference: −0.17
[2]; [5]
  Difference: 0.05
[2]; [12]
  Cholesterol-free: 1.249
[2]; [13]
  Complete: 1.303

## CC1(C)S[C@@H]2[C@H](NC(=O)[C@H](NC(=O)N3CCNC3=O)c3ccccc3)C(=O)N2[C@H]1C(=O)O [Azlocillin (sodium salt)]
[1]; [15]
  Cholesterol-free media + simvastatin (0.04 μM): 1.046
[1]; [16]
  Complete Media: 0.9592
[1]; [4]
  Difference: −0.09
[2]; [18]
  Difference: −0.16
[2]; [19]
  Cholesterol-free: 1.217
[2]; [20]
  Complete: 1.06

## C[C@H]1[C@H](NC(=O)/C(=N\OC(C)(C)C(=O)O)c2csc(N)n2)C(=O)N1S(=O)(=O)O [Aztreonam]
[1]; [3]
  Cholesterol-free media + simvastatin (0.04 μM): 1.706
[1]; drug in complete media
  Complete Media: 1.446
[1]; [4]
  Difference: −0.26
[2]; [5]
  Difference: −0.20
[2]; [6]
  Cholesterol-free: 1.093
[2]; NCI-H292 cells, complete media
  Complete: 0.892

## CCOC(=O)OC(C)OC(=O)[C@@H]1N2C(=O)[C@@H](NC(=O)[C@H](N)c3ccccc3)[C@H]2SC1(C)C (stereo partly drawn) [Bacampicillin (hydrochloride)]
[1]; [15]
  Cholesterol-free media + simvastatin (0.04 μM): 1.049
[1]; [16]
  Complete Media: 0.956
[1]; [4]
  Difference: −0.09
[2]; [18]
  Difference: −0.18
[2]; [19]
  Cholesterol-free: 1.212
[2]; [20]
  Complete: 1.028

## CC[C@H](C)[C@H](N)C1=N[C@H](C(=O)N[C@@H](CC(C)C)C(=O)N[C@H](CCC(=O)O)C(=O)N[C@H](C(=O)N[C@H]2CCCCNC(=O)[C@H](CC(N)=O)NC(=O)[C@@H](CC(=O)O)NC(=O)[C@H](Cc3cnc[nH]3)NC(=O)[C@@H](Cc3ccccc3)NC(=O)[C@H]([C@@H](C)CC)NC(=O)[C@@H](CCCN)NC2=O)[C@@H](C)CC)CS1 [Bacitracin] (HELM PEPTIDE1{[CC[C@H](C)[C@H](N)C1=N[C@H](C(=O)[*:2])CS1].L.[dE].I.K.[NCCC[C@@H](N[*:1])C(=O)[*:2]].I.[dF].H.[dD].N}$PEPTIDE1,PEPTIDE1,5:R3-11:R2$$$V2.0)
[1]; [15]
  Cholesterol-free media + simvastatin (0.04 μM): 0.9407
[1]; [16]
  Complete Media: 1.203
[1]; [22]
  Difference: 0.26
[2]; [6]
  Cholesterol-free: 1.42
[2]; NCI-H292 cells, complete media
  Complete: 1.094
[2]; complete vs cholesterol-free media, […]
  Difference: −0.33

## NCC(CC(=O)O)c1ccc(Cl)cc1 (stereo not drawn) [Baclofen]
[1]; [23]
  Cholesterol-free media + simvastatin (0.04 μM): 0.9225
[1]; [24]
  Complete Media: 1.02
[1]; [17]
  Difference: 0.10
[2]; [12]
  Cholesterol-free: 0.5541
[2]; [13]
  Complete: 1.886
[2]; [14]
  Difference: 1.33

## O=c1cc(-c2ccccc2)oc2cc(O)c(O)c(O)c12 [Baicalein]
[1]; [3]
  Cholesterol-free media + simvastatin (0.04 μM): 1.347
[1]; drug in complete media
  Complete Media: 1.087
[1]; [4]
  Difference: −0.26
[2]; [6]
  Cholesterol-free: 1.261
[2]; NCI-H292 cells, complete media
  Complete: 0.9313
[2]; [21]
  Difference: −0.33

## O=C(O)[C@H]1O[C@@H](Oc2cc3oc(-c4ccccc4)cc(=O)c3c(O)c2O)[C@H](O)[C@@H](O)[C@@H]1O [Baicalin]
[1]; [3]
  Cholesterol-free media + simvastatin (0.04 μM): 1.298
[1]; drug in complete media
  Complete Media: 1.093
[1]; [4]
  Difference: −0.20
[2]; [5]
  Difference: −0.04
[2]; [12]
  Cholesterol-free: 1.064
[2]; [13]
  Complete: 1.025

## O=C(O)CCNC(=O)c1ccc(/N=N/c2ccc(O)c(C(=O)O)c2)cc1 [Balsalazide]
[1]; [23]
  Cholesterol-free media + simvastatin (0.04 μM): 1.228
[1]; [24]
  Complete Media: 1.264
[1]; [17]
  Difference: 0.04
[2]; [6]
  Cholesterol-free: 1.245
[2]; NCI-H292 cells, complete media
  Complete: 0.9198
[2]; [21]
  Difference: −0.33

## CN(C)C(=O)Oc1cc(OC(=O)N(C)C)cc(C(O)CNC(C)(C)C)c1 (stereo not drawn) [Bambuterol hydrochloride]
[1]; [23]
  Cholesterol-free media + simvastatin (0.04 μM): 1.184
[1]; [24]
  Complete Media: 1.226
[1]; [17]
  Difference: 0.04
[2]; [12]
  Cholesterol-free: 1.362
[2]; [13]
  Complete: 1.472
[2]; [14]
  Difference: 0.11

## CCS(=O)(=O)N1CC(CC#N)(n2cc(-c3ncnc4[nH]ccc34)cn2)C1 [Baricitinib]
[1]; [7]
  Cholesterol-free media + simvastatin (0.04 μM): 1.286
[1]; [8]
  Complete Media: 0.9674
[1]; [4]
  Difference: −0.32
[2]; [5]
  Difference: −0.22
[2]; [6]
  Cholesterol-free: 0.7863
[2]; NCI-H292 cells, complete media
  Complete: 0.5701

## CCCCCCCCCCCCCCCCCCOCC(O)CO (stereo not drawn) [Batilol]
[1]; cholesterol-free media with simvastatin 0.04 μM, FDA drug library screen (TABLE 2)
  Cholesterol-free media + simvastatin (0.04 μM): 0.9215
[1]; complete media, FDA drug library screen (TABLE 2)
  Complete Media: 0.9293
[1]; complete media minus cholesterol-free media + simvastatin (0.04 μM), >0 enhanced anti-cancer activity, about 0 neutral, <0 antagonist
  Difference: 0.01
[2]; [9]
  Difference: −0.55
[2]; [10]
  Cholesterol-free: 1.321
[2]; [11]
  Complete: 0.7704

## CCC(=O)OCC(=O)[C@@]1(OC(=O)CC)[C@@H](C)C[C@H]2[C@@H]3CCC4=CC(=O)C=C[C@]4(C)[C@@]3(Cl)[C@@H](O)C[C@@]21C [Beclometasone dipropionate]
[1]; [7]
  Cholesterol-free media + simvastatin (0.04 μM): 1.133
[1]; [8]
  Complete Media: 0.8544
[1]; [4]
  Difference: −0.28
[2]; [18]
  Difference: −0.19
[2]; [19]
  Cholesterol-free: 1.005
[2]; [20]
  Complete: 0.8203

## C[C@H]1C[C@H]2[C@@H]3CCC4=CC(=O)C=C[C@]4(C)[C@@]3(Cl)[C@@H](O)C[C@]2(C)[C@@]1(O)C(=O)CO [Beclometasone]
[1]; cholesterol-free media with simvastatin 0.04 μM, […]
  Cholesterol-free media + simvastatin (0.04 μM): 0.7122
[1]; complete media, […]
  Complete Media: 0.7656
[1]; [22]
  Difference: 0.05
[2]; Complete minus Cholesterol-free, […]
  Difference: −0.04
[2]; [12]
  Cholesterol-free: 1.244
[2]; [13]
  Complete: 1.205

## COc1nc2ccc(Br)cc2cc1[C@@H](c1ccccc1)[C@@](O)(CCN(C)C)c1cccc2ccccc12 [Bedaquiline]
[1]; [23]
  Cholesterol-free media + simvastatin (0.04 μM): 1.492
[1]; [24]
  Complete Media: 1.59
[1]; [17]
  Difference: 0.10
[2]; [12]
  Cholesterol-free: 0.6087
[2]; [13]
  Complete: 1.472
[2]; [14]
  Difference: 0.86
